Data taken from patent US6534524B1, “Indazole compounds and pharmaceutical compositions for inhibiting protein kinases, and methods for their use” (Agouron Pharmaceuticals, Inc., priority 1999, dated 2003).
Where two headings read alike, the source gives them in different places. One block for each compound: values may come before it.

How the values were obtained:
[1] = Human liver microsome (HLM) assay; format: in vitro ADME; details: human liver microsomes, 5 μM test compound
How it was run: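 Compound metabolism in human liver microsomes measured in triplicate. Samples at 0 and 2 h centrifuged at 14000 g for 10 min and analysed by LC-MS.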

[2] = Determination of inhibitor concentration in mouse plasma after intraperitoneal and oral dosing; format: in vivo; details: for AUClast / Cmax / plasma half-life (T1/2): vehicle PEG400:H2O pH 2.3 30:70; for concentration at 7 h: female, vehicle PEG400:H2O pH 2.3 30:70, read-out: Cmin (7 hr conc.)
How it was run: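 Mice dosed intraperitoneally or orally; blood taken by ocular bleed at 0.5, 1 and 4 h and by intracardiac puncture at 7 h. Plasma extracted with ethyl acetate after internal standard and NaOH addition, analysed by HPLC or LC-MS against a mouse-plasma standard curve.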

human FGF-R1 = human FGF-R1 (Homo sapiens, UniProt P11362, C488A/C584S/L457V); experiment: FGF-R spectrophotometric assay
[3] = target: unphosphorylated VEGF-R2Δ50 (FLVK) (Homo sapiens, UniProt P35968, DEL940-989/E990V); experiment: VEGF-R2 coupled spectrophotometric assay, unphosphorylated VEGF-R2Δ50 (FLVK); details: FLVK Ki, Table 1
[4] = tested on: human umbilical vein endothelial cells (HUVEC); experiment: HUVEC proliferation assay (VEGF-stimulated, MTT); format: cell-based; details: Homo sapiens, HUVEC
CDK2/Cyclin A = CDK2/Cyclin A (Homo sapiens, UniProt P24941); experiment: CDK2/Cyclin A assay ([32P]ATP, Rb fragment); format: biochemical
CDK4/Cyclin D3 complex = CDK4/Cyclin D3 complex (Homo sapiens, UniProt P11802); experiment: CDK4/Cyclin D assay ([32P]ATP, Rb fragment)
human CHK1 (FL-CHK1) = target: T1, human CHK1 (FL-CHK1) (Homo sapiens, UniProt O14757); experiment: CHK1 assay (coupled spectrophotometric, Syntide-2); format: biochemical; details: Table 1
T1 construct: C-terminally His-tagged full-length human CHK1 (FL-CHK1); made in house; host or cells: baculovirus/insect cell system
T1 sequence (O14757 1-476): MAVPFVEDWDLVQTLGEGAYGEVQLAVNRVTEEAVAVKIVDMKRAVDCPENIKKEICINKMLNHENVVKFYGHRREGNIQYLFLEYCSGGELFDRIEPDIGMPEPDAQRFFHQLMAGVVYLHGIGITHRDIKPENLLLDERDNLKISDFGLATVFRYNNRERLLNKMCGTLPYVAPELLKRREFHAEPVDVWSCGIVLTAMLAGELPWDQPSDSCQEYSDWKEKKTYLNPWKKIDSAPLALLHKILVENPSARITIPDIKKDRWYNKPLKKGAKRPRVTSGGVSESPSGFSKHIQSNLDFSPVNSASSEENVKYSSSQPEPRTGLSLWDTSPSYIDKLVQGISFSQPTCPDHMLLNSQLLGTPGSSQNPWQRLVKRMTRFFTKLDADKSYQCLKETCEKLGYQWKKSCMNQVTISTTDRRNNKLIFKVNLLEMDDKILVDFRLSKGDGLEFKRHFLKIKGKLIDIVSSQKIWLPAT
Excerpt: CHK1 Construct for Assay: C-terminally His-tagged full-length human CHK1 (FL-CHK1) was expressed using the baculovirus/insect cell system. […] The protein was purified by conventional chromatographic techniques.
The production of ADP from ATP that accompanies phosphoryl transfer to the synthetic substrate peptide Syntide-2 ([…]) was coupled to oxidation of NADH using phosphoenolpyruvate (PEP) through the actions of pyruvate kinase (PK) and lactic dehydrogenase (LDH). The oxidation of NADH was monitored by following the decrease of absorbance at 340 nm (ε340=6.22 cm^−1 mM^−1) using a HP8452 spectrophotometer. […] Assays were initiated with 10 nM of FL-CHK1. Ki values were determined by measuring initial enzyme activity in the presence of varying concentrations of test compounds. The data were analyzed using Enzyme Kinetic and Kaleidagraph software.

Sequence of CDK4/Cyclin D3 complex (P11802 whole entry, the tested form may be a part): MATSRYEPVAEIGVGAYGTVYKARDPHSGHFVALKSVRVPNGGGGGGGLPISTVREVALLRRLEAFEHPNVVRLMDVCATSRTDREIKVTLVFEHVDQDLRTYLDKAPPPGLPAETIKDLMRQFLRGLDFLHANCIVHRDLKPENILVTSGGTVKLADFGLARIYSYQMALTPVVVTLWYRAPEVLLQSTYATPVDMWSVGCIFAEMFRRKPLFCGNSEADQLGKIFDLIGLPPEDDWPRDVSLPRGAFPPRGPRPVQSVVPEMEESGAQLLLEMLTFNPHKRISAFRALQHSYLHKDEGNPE
Sequence of CDK4/Cyclin D3 complex (P30281 whole entry partner, the tested form may be a part): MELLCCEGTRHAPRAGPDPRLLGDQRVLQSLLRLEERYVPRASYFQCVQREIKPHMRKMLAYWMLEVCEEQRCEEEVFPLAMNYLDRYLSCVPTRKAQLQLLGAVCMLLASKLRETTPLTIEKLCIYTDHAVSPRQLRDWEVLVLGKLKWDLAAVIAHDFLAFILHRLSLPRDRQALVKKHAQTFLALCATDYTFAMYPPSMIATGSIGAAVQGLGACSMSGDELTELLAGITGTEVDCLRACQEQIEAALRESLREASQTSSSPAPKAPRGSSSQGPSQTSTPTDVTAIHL
Sequence of human FGF-R1 (P11362 456-766 L457V/C488A/C584S): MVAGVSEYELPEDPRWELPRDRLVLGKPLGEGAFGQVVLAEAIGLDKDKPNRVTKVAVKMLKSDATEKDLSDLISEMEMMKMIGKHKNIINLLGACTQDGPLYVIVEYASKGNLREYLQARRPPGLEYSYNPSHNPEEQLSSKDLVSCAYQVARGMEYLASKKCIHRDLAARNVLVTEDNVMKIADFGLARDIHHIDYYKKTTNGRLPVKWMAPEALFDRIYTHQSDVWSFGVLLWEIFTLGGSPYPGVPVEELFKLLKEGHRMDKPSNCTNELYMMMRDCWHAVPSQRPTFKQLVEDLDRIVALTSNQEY
Sequence of unphosphorylated VEGF-R2Δ50 (FLVK) (P35968 with tags, fused parts or gaps DEL940-989/E990V limits assumed): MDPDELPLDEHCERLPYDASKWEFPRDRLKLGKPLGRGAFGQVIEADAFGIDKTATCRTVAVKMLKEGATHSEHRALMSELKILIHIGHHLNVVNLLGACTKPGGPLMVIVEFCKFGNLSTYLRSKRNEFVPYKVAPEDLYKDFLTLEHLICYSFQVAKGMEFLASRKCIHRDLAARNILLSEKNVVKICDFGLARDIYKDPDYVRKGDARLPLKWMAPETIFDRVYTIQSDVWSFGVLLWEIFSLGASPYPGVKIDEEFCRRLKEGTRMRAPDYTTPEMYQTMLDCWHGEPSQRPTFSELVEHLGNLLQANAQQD

Compound: CCn1nc(C)cc1C(=O)Nc1cccc(C(=O)c2ccc3c(/C=C/c4ccccn4)n[nH]c3c2)c1 [Example 41(a), 6-[3-((1-Ethyl-3-methyl-1H-pyrazol-5-yl)carboxamido)benzoyl]-3-E-[2-(pyridin-2-yl)ethenyl]-1H-indazole]
% remain (HLM, 2 h) [1]: 96% | AUClast ([2]; IP, 25 mg/kg): 92823 ng·h/mL | Cmax ([2]; IP, 25 mg/kg): 32202 ng/mL | plasma half-life (T1/2) ([2]; IP, 25 mg/kg): 2.9 h | AUClast ([2]; PO, 50 mg/kg): 48998 ng·h/mL | Cmax ([2]; PO, 50 mg/kg): 18433 ng/mL | plasma half-life (T1/2) ([2]; PO, 50 mg/kg): 3.4 h | concentration at 7 h ([2]; IP, 25 mg/kg): 3860 ng/mL | concentration at 7 h ([2]; PO, 50 mg/kg): 2460 ng/mL | Ki (human FGF-R1): 20 nM | Ki [3]: 0.03 nM

Compound: CCn1nc(C)cc1C(=O)Nc1cc(Nc2ccc3c(/C=C/c4ccccn4)n[nH]c3c2)c(F)cc1C [Example 48(a), 6-[N-(5-((1-Ethyl-3-methyl-1H-pyrazol-5-yl)carboxanido)-2-fluoro-4-methylphenyl)amino]-3-E-[2-(pyridin-2-yl)ethenyl]-1H-indazole]
IC50 ([4]; + albumin, read-out: HUVEC + albumin IC50): 8.8 nM | % remain (HLM, 2 h) [1]: 55% | Ki (human FGF-R1): 14 nM | Ki [3]: 0.37 nM

Compound: COCCc1cc(O)ccc1-c1ccc2c(-c3nc4ccccc4[nH]3)n[nH]c2c1 [Example 24(h), 3-1H-Benzoimidazol-2-yl-6-(2-(2-methoxyethyl)-4-hydroxyphenyl)-1H-indazole]
Ki (CDK2/Cyclin A; Table 2): 0.054 µM | Ki (CDK4/Cyclin D3 complex): 53 nM

Ki (CDK2/Cyclin A; Table 3): 3.1 µM | Ki (CDK4/Cyclin D3 complex): 5000 nM
Compound: Fc1cccc(/C=C/c2n[nH]c3cc(-c4ccncc4)ccc23)c1F [29(l), 6-Pyrid-4-yl-3-E-[2-(2,3-difluorophenyl)ethenyl]-1H-indazole]

Compound: CNC(=O)c1cccc2[nH]c(-c3n[nH]c4cc(-c5ccc(O)cc5OC)ccc34)nc12 [Example 25(j), 3-(4-Methylcarbamoyl-1H-benzoinidazol-2-yl)-6-(2-methoxy-4-hydroxy-phenyl)-1H-indazole]
Ki (CDK2/Cyclin A; Table 2): 0.079 µM | Ki (CDK4/Cyclin D3 complex): 16 nM

Compound: CC(=O)Nc1cc(C(=O)c2ccc3c(/C=C/c4ccccn4)n[nH]c3c2)ccc1C [Example 41(gg), 6-(3-Acetamido-4-methylbenzoyl)-3-E-[2-(pyridin-2-yl)ethenyl]-1H-indazole]
AUClast ([2]; PO, 25 mg/kg): 2692 ng·h/mL | Cmax ([2]; PO, 25 mg/kg): 2079 ng/mL | plasma half-life (T1/2) ([2]; PO, 25 mg/kg): 1.1 h | concentration at 7 h ([2]; PO, 25 mg/kg): 29 ng/mL | Ki (human FGF-R1): 3.5 nM

Compound: Cc1cc(O)cc(C)c1-c1ccc2c(-c3nc4ccccc4[nH]3)n[nH]c2c1 [Example 24(j), 3-1H-Benzoimidazol-2-yl-6-(2,6-dimethyl-4-hydroxyphenyl)-1H-indazole]
Ki (CDK2/Cyclin A; Table 2): 2.1 µM | Ki (CDK4/Cyclin D3 complex): 320 nM

Compound: COc1cc(-c2ccc3c(-c4nc5ccccc5[nH]4)n[nH]c3c2)c(CO)cc1O [Example 24(n), 3-1H-Benzoimidazol-2-yl-6-(2-(hydroxymethyl)-5-methoxy-4-hydroxy-phenyl)-1H-indazole]
Ki (CDK2/Cyclin A; Table 2): 0.035 µM | Ki (CDK4/Cyclin D3 complex): 19 nM

Compound: COc1c(O)cccc1-c1ccc2c(-c3nc4ccccc4[nH]3)n[nH]c2c1 [Example 24(p), 3-1H-Benzoinidazol-2-yl-6-(2-methoxy-3-hydroxyphenyl)-1H-indazole]
Ki (CDK2/Cyclin A; Table 2): 0.089 µM | Ki (CDK4/Cyclin D3 complex): 92 nM

Compound: COc1cc(O)ccc1-c1ccc2c(-c3nc4ccc(S(N)(=O)=O)cc4[nH]3)n[nH]c2c1 [Example 25(i), 3-(5-Aminosulfonyl-1H-benzoimidazol-2-yl)-6-(2-methoxy-4-hydroxy-phenyl)-1H-indazole]
Ki (CDK2/Cyclin A; Table 2): 0.021 µM | Ki (CDK4/Cyclin D3 complex): 20 nM

Compound: Clc1ccc(/C=C/c2n[nH]c3cc(-c4ccncc4)ccc23)cc1 [Example 29(c), 6-Pyrid-4-yl-3-E-[2-(4-chlorophenyl)ethenyl]-1H-indazole]
Ki (CDK2/Cyclin A; Table 3): 2.2 µM | Ki (CDK4/Cyclin D3 complex): 2000 nM

Compound: COc1cc(O)ccc1-c1ccc2c(-c3nc4cc(N(C)C)ccc4[nH]3)n[nH]c2c1 [Example 25(h), 3-(5-Dimethylamino-1H-benzoimidazol-2-yl)-6-(2-methoxy-4-hydroxy-phenyl)-1H-indazole]
Ki (CDK2/Cyclin A; Table 2): 0.17 µM | Ki (CDK4/Cyclin D3 complex): 24 nM

Compound: Cc1cccc(C(=O)Nc2cccc(Oc3ccc4c(/C=C/c5ccccc5)n[nH]c4c3)c2)c1 [Example 5(b), 3-Methyl-N-[3-(3-styryl-1h-indazol-6-yloxy)-phenyl]-benzamide]
Ki (human FGF-R1): 14 nM

Compound: Oc1ccc(-c2ccc3c(/C=C/c4ccccc4)n[nH]c3c2)cc1OCc1ccccc1 [Example 1(b), 3-(E-Styryl)-6-(3-benzyloxy-4-hydroxy-phenyl)-1H-indazole]
Ki (human CHK1 (FL-CHK1); read-out: CHK-1 Ki): 1400 nM | Ki (CDK2/Cyclin A; Table 1): 4 µM | IC50 ([4]; read-out: HUVEC IC50): > 1000 nM | Ki (CDK4/Cyclin D3 complex): 1300 nM | Ki [3]: 2.2 nM

Compound: C=CCn1nc(C)cc1C(=O)Nc1cc(C(=O)c2ccc3c(/C=C/c4ccccn4)n[nH]c3c2)ccc1C [Example 41(ff), 6-[3-((1-Allyl-3-methyl-1H-pyrazol-5-yl)carboxamido)-4-methylbenzoyl]-3-E-[2-(pyridin-2-yl)ethenyl]-1H-indazole]
% remain (HLM, 2 h) [1]: 68% | AUClast ([2]; PO, 25 mg/kg): 9176 ng·h/mL | plasma half-life (T1/2) ([2]; PO, 25 mg/kg): 2.0 h | concentration at 7 h ([2]; PO, 25 mg/kg): 410 ng/mL | Ki (human FGF-R1): 12 nM

Compound: CNC(=O)c1ccc2[nH]c(-c3n[nH]c4cc(-c5ccc(O)cc5OC)ccc34)nc2c1 [Example 25(g), 3-(5-Methylcarbamoyl-1H-benzoimidazol-2-yl)-6-(2-methoxy-4-hydroxyphenyl)-1H-indazole]
Ki (CDK2/Cyclin A; Table 2): 0.08 µM | Ki (CDK4/Cyclin D3 complex): 21 nM

Compound: Cc1cc(C(=O)Nc2cccc(C(=O)c3ccc4c(/C=C/c5ccccn5)n[nH]c4c3)c2)n(C(C)C)n1 [Example 41(x), 6-[3-((1-Isopropyl-3-methyl-1H-pyrazol-5-yl)carboxamido)benzoyl]-3-E-[2-(pyridin-2-yl)ethenyl]-1H-indazole]
AUClast ([2]; PO, 25 mg/kg): 24174 ng·h/mL | Cmax ([2]; PO, 25 mg/kg): 4587 ng/mL | plasma half-life (T1/2) ([2]; PO, 25 mg/kg): 4.2 h | concentration at 7 h ([2]; PO, 25 mg/kg): 1270 ng/mL | Ki (human FGF-R1): 3.4 nM

Compound: Oc1ccc(-c2ccc3c(-c4nc5ccccc5[nH]4)n[nH]c3c2)c(O)c1 [Example 24(f), 3-1H-Benzoimidazol-2-yl-6-(2,4-dihydroxyphenyl)-1H-indazole]
Ki (CDK2/Cyclin A; Table 2): 0.0072 µM | Ki (CDK4/Cyclin D3 complex): 7.4 nM

Compound: COc1cc(O)ccc1-c1ccc2c(-c3nc4c(N5CCN(C)CC5)cccc4[nH]3)n[nH]c2c1 [Example 25(d), 3-[4-(4-Methylpiperazin-1-yl)-1H-benzoinidazol-2-yl]-6-(2-methoxy-4-hydroxyphenyl)-1H-indazole]
Ki (CDK2/Cyclin A; Table 2): 0.16 µM | Ki (CDK4/Cyclin D3 complex): 98 nM

Compound: COc1cc(O)ccc1-c1ccc2c(-c3nc4c(SCCO)cccc4[nH]3)n[nH]c2c1 [Example 25(f), 3-[4-(2-Hydroxyethylsulfanyl)-1H-benzoimidazol-2-yl]-6-(2-methoxy-4-hydroxyphenyl)-1H-indazole]
Ki (CDK2/Cyclin A; Table 2): 0.39 µM | Ki (CDK4/Cyclin D3 complex): 1000 nM

Compound: COc1cc(-c2ccc3c(-c4ccc5ccccc5c4)n[nH]c3c2)ccc1O [Example 2(a), 3-(Naphthalen-2-yl)-6-(3-methoxy-4-hydroxy-phenyl)-1H-indazole]
inhibition at 20 µM (human CHK1 (FL-CHK1); read-out: CHK-1 % inhibition, @20 μM): 61% | Ki (CDK2/Cyclin A; Table 1): 0.61 µM | IC50 ([4]; read-out: HUVEC IC50): > 1000 nM | Ki (CDK4/Cyclin D3 complex): 1600 nM | Ki [3]: 40 nM

Compound: COc1cc(-c2ccc3c(-c4cc(OC)c(OC)c(OC)c4)n[nH]c3c2)ccc1O [Example 2(c), 3-(3,4,5-Trimethoxyphenyl)-6-(3-methoxy-4-hydroxy-phenyl)-1H-indazole]
Ki (CDK2/Cyclin A; Table 1, μM): 50 µM | Ki (CDK4/Cyclin D3 complex): 26000 nM | Ki [3]: 2600 nM

Compound: CN(c1cccc(N)c1)c1ccc2c(/C=C/c3ccccc3)n[nH]c2c1 [Example 11, N-Methyl-N-(3-styryl-1H-indazol-6-yl)-benzene-1,3-diamine]
Ki (human FGF-R1): 34000 nM | Ki [3]: 12 nM
